Data: article PMC9029992, “New α-galactosidase-inhibiting aminohydroxycyclopentanes” (RSC Advances, 2021)
Like-named read-outs stand apart in the source and are kept apart here.

What was measured:
[1] = molecular target: T1, α-galactosidase from green coffee beans (gcb, GH 27) (Coffea arabica, UniProt Q42656); details: cited from earlier work
T1 construct: Green coffee bean α-galactosidase: 50 mM sodium phosphate buffer (pH 7); from tissue; host or cells: green coffee beans

[2] = molecular target: T2, β-glucosidase/β-galactosidase from Agrobacterium sp. (Abg, GH 1) (Agrobacterium sp., UniProt P12614); assay: Ki determination with Agrobacterium sp. β-glucosidase (Abg); type: biochemical; details: pH 7, substrate Gal-β-pNP, room temperature; read-out: Ki Abg (β-Glc/β-Gal) (GH 1)
T2 sequence (P12614 1-459): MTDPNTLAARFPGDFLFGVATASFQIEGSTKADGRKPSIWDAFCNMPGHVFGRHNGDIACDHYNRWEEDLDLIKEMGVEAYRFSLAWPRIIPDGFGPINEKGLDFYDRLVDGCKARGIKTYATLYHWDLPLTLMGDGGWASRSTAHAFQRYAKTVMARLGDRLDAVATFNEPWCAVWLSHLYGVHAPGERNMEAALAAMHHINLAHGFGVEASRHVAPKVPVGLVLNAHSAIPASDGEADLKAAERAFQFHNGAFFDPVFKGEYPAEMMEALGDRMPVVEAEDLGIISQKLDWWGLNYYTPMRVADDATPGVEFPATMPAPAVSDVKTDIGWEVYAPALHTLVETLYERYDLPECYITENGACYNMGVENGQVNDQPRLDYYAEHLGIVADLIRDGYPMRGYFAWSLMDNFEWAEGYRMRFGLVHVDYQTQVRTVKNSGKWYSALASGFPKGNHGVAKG
Description: (§1) Kinetic studies were performed at room temperature in an appropriate buffer for each enzyme (specific conditions can be found below). All reactions were performed in half-area 96-well-plates (Corning) and monitored with a Synergy H1 plate reader (BioTek). In each experiment, the appropriate concentration of the enzyme was incubated with different concentrations of the inhibitors for 2–5 minutes before initiating the reaction by the addition of the glycoside substrate. The initial rate was then measured by monitoring the increase in, either absorbance at 405 nm (where the aglycone is either p-nitrophenol (pNP) or 2,4-dinitrophenol (dNP)) or fluorescence at 365/455 nm (where the aglycone is 4-methylumbelliferone (MU)) for up to five minutes. Ki determinations were performed using two different substrate concentrations. For each substrate concentration, a range of three to six inhibitor concentrations was used. Dixon plots (1/v vs. [I]) were constructed to validate the use of competitive inhibition model and to assess the fit of the data. The data were then fit to a competitive inhibition model using non-linear regression analysis with Grafit 7.0.0. (Erithacus Software).
Agrobacterium sp. β-glucosidase:[48,49]

[3] = molecular target: lac Z β-galactosidase from E. coli (GH 2) (Escherichia coli, UniProt P00722); assay: Ki determination with E. coli lac Z β-galactosidase; type: biochemical; details: pH 7, substrate Gal-β-pNP, room temperature
Description: as §1

[4] = molecular target: T3, Fabrazyme® (commercial recombinant lysosomal α-galactosidase, GH 27) (Homo sapiens, UniProt P06280); assay: Ki determination with Fabrazyme (acid α-galactosidase); type: biochemical; details: pH 5.5, substrate Gal-α-dNP, room temperature
T3 construct: purchased
T3 sequence (P06280 32-429): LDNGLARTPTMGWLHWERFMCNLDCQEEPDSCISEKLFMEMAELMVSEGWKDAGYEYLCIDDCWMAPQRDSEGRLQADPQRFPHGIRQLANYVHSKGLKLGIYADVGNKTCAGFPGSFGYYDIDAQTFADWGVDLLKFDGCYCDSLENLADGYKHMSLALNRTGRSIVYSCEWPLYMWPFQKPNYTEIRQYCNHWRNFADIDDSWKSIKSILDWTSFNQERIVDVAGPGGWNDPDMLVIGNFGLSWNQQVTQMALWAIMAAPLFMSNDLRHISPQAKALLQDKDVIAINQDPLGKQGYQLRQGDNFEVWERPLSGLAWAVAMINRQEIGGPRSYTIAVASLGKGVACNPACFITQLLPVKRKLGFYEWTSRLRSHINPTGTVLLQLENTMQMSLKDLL
Description: as §1

[5] = molecular target: T1, α-galactosidase from green coffee beans (gcb, GH 27); assay: Ki determination with green coffee bean α-galactosidase; type: biochemical; details: pH 7, substrate Gal-α-MU, room temperature
Description: as §1

[6] = molecular target: α-glucosidase from S. cerevisiae (GH 13); assay: Ki determination with S. cerevisiae α-glucosidase; type: biochemical; details: pH 7, substrate Glc-α-pNP, room temperature; read-out: Ki S. cer. (α-Glc) (GH 13)
Description: as §1
S. cerevisiae α-glucosidase: 50 mM sodium phosphate buffer (pH 7). Substrate: Glc-α-pNP, Km = 0.75 mM.

[7] = molecular target: T4, recombinant human lysosomal β-glucocerebrosidase (GCase, GH 30) (Homo sapiens, UniProt P04062); assay: Ki determination with GCase (β-glucocerebrosidase); type: biochemical; details: pH 7, substrate Glc-β-dNP, room temperature
T4 sequence (P04062 40-536): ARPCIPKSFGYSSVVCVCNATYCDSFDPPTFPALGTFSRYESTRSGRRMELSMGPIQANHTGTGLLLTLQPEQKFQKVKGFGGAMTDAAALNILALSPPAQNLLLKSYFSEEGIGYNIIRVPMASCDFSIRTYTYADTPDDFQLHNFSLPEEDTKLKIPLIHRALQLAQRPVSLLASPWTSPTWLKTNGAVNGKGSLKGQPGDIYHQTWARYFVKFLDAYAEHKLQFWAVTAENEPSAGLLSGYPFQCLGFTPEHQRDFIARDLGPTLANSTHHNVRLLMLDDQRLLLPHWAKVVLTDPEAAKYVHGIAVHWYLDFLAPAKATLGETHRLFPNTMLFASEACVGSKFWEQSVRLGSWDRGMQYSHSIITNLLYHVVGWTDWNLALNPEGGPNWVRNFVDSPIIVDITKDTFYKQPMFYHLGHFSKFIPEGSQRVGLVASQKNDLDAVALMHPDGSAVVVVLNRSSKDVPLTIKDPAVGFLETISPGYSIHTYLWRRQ
Description: as §1

[8] = molecular target: T3, Fabrazyme® (commercial recombinant lysosomal α-galactosidase, GH 27); details: cited from earlier work
[9] = molecular target: α-glucosidase from S. cerevisiae (GH 13); set-up: method as in PMID 2825997; details: yeast; read-out: Ki α-Glc (yeast); cited from earlier work
[10] = system: α-galactosidase from E. coli (GH 36); details: cited from earlier work
[11] = system: bovine liver α-galactosidase; set-up: method as in PMID 15858658; details: cited from earlier work
β-glucosidase (almonds) = molecular target: β-glucosidase (almonds); set-up: method as in PMID 15064801; details: reported in literature, read-out: inhibitory activity against β-glucosidase; cited from earlier work
[12] = read-out: Ki gcb α-galactosidase

Sequence of lac Z β-galactosidase from E. coli (GH 2) (P00722 2-1024 limits assumed): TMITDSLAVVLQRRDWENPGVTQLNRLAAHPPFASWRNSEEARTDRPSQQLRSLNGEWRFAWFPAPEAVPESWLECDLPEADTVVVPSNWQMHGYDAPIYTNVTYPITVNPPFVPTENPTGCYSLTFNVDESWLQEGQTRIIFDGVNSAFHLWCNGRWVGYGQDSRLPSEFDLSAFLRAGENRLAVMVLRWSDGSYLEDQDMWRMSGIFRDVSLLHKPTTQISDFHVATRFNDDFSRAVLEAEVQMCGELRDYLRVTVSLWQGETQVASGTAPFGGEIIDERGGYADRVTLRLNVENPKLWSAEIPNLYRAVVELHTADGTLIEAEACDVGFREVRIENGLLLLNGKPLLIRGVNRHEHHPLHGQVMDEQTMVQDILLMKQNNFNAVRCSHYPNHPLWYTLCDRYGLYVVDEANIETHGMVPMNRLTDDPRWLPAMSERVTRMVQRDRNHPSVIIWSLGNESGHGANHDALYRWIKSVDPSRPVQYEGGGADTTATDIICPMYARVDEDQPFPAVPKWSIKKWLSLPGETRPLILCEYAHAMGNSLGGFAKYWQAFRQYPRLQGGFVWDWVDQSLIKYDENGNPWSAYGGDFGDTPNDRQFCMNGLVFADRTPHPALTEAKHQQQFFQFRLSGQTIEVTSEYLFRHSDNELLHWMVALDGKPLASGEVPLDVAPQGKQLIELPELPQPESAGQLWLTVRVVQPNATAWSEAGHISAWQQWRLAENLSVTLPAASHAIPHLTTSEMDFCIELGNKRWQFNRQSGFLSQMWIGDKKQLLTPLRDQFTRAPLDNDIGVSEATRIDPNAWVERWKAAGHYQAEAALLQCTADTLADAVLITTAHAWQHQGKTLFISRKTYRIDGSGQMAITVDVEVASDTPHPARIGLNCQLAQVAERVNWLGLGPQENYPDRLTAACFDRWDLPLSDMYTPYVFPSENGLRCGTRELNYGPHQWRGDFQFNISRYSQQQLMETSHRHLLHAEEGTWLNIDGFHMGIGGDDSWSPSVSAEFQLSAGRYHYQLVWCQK
T1 sequence (Q42656 16-378): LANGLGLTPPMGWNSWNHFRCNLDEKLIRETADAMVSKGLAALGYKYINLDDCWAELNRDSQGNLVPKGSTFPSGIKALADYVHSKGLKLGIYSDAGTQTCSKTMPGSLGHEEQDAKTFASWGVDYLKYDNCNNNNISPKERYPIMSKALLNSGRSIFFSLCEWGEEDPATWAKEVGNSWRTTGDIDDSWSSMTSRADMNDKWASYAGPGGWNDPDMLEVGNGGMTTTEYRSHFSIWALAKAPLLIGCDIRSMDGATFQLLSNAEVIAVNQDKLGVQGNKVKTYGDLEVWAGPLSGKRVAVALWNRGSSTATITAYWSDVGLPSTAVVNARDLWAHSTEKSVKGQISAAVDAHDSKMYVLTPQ

OC[C@H]1NC[C@@H](O)[C@H]1O [compound 7, 1,4-dideoxy-1,4-imino-D-lyxitol]
Ki [1, 12]: 0.13 µM

Cc1c(OCC(F)(F)F)ccnc1C[S+]([O-])c1nc2ccccc2[nH]1 (stereo not shown) [lansoprazole]
IC50 ([1]; read-out: IC50 gcb α-galactosidase): 6.4 µM

N[C@@H]1[C@H](O)[C@@H](O)[C@@H](O)[C@H]1CO [compound 22, (1S,2S,3S,4S,5R)-4-Amino-5-(hydroxymethyl)cyclopentane-1,2,3-triol]
Ki [2]: 0.014 ± 0.003 µM
Ki [3]: 200 ± 90 µM
Ki [4]: 9.5 ± 1.9 µM
Ki [5]: 6.7 ± 0.9 µM
Ki [6]: 160 ± 60 µM
Ki [7]: 18 ± 3 µM
Ki ([1]; read-out: Ki gcb (α-Gal) (GH 27) (converted)): 12 µM

CCCCCCN1C[C@@H](O)[C@@H](O)[C@@](F)(CO)C1 [compound 4]
Ki ([8]; read-out: Ki Fabrazyme®): 116 µM
Ki [1, 12]: 0.5 µM

OC[C@H]1NC[C@H](O)[C@@H](O)[C@H]1O [compound 1, 1,5-dideoxy-1,5-imino-D-galactitol]
Ki [9]: > 1000 µM
IC50 ([10]; read-out: IC50 α-galactosidase from E. coli): 0.24 µM

OC[C@@H]1[C@H](O)[C@H](O)[C@@H](O)[C@H]1NCc1ccccc1 [compound 12]
Ki [1, 12]: 0.43 µM
inhibitory activity against bovine liver α-galactosidase [11]: does not show any inhibitory activity
Ki (β-glucosidase (almonds)): 0.51 µM

CCCCCCN[C@@H]1[C@H](O)[C@@H](O)[C@@H](O)[C@H]1CO [compound 23, (1S,2S,3S,4S,5R)-4-(n-Hexylamino)-5-(hydroxymethyl)cyclopentane-1,2,3-triol]
Ki [2]: 0.013 ± 0.003 µM
Ki [3]: 120 ± 20 µM
Ki [4]: 4.9 ± 0.9 µM
Ki [5]: 0.19 ± 0.05 µM
Ki [6]: 130 ± 40 µM
Ki [7]: 40 ± 8 µM

CN(C)c1cccc2c(S(=O)(=O)NCCCCCCN[C@@H]3[C@H](O)[C@@H](O)[C@@H](O)[C@H]3CO)cccc12 [compound 27, 5-(Dimethylamino)-N-(6-(((1S,2S,3S,4S,5R)-2,3,4-trihydroxy-5-(hydroxymethyl)cyclopentyl)amino)hexyl)naphthalene-1-sulfonamide]
Ki [2]: 0.005 ± 0.001 µM
Ki [3]: 7.8 ± 4.6 µM
Ki [4]: 4.4 ± 1.1 µM
Ki [5]: 0.14 ± 0.04 µM
Ki [6]: 16 ± 4 µM
Ki [7]: 0.63 ± 0.09 µM

N[C@@H]1[C@H](O)[C@@H](O)[C@@H](O)[C@]2(CO)C[C@H]12 [compound 6]
Ki ([1]; read-out: Ki gcb): 0.54 µM
IC50 ([10]; read-out: IC50 E. coli): 80 µM

OC[C@@H]1C[C@@H](O)[C@@H](O)[C@@H](CO)N1 [compound 2]
IC50 ([1]; read-out: IC50 gcb galactosidase): 0.06 µM
IC50 ([10]; read-out: IC50 E. coli enzyme): 32 µM

CCCCCCCCCN[C@@H]1[C@H](O)[C@@H](O)[C@@H](O)[C@H]1CO [compound 24, (1S,2S,3S,4S,5R)-4-(n-Nonylamino)-5-(hydroxymethyl)cyclopentane-1,2,3-triol]
Ki [2]: 0.0037 ± 0.0016 µM
Ki [3]: 23 ± 7 µM
Ki [4]: 0.52 ± 0.21 µM
Ki [5]: 0.25 ± 0.05 µM
Ki [6]: 73 ± 17 µM
Ki [7]: 1.2 ± 0.5 µM

N[C@H]1C[C@H](CO)[C@H](O)[C@H](O)[C@H]1O [compound 5, 4-epi-validamine]
IC50 ([1]; read-out: IC50 gcb): 500 µM
IC50 ([10]; read-out: IC50 E. coli): 890 µM

OC[C@H]1CNC[C@@H](O)[C@H]1O [compound 3, 4-epi-isofagomine]
IC50 ([1]; read-out: IC50 gcb): 200 µM

O=S1(=O)N[C@@H]2[C@H](O)[C@@H](O)[C@@H](O)[C@@H](CO)[C@@H]2O1 [compound 11]
IC50 ([8]; as printed in Fig. 1): 110 µM
Ki ([8]; read-out: Ki Fabrazyme® (α-Gal) (GH 27)): 110 µM
